Laboratory results published in article PMC6092045 (Chemical communications (Cambridge, England), 2018).

Molecular target: T1, ERAAP (ER aminopeptidase associated with antigen processing) (Mus musculus, UniProt Q9EQH2)
T1 sequence (Q9EQH2 1-930): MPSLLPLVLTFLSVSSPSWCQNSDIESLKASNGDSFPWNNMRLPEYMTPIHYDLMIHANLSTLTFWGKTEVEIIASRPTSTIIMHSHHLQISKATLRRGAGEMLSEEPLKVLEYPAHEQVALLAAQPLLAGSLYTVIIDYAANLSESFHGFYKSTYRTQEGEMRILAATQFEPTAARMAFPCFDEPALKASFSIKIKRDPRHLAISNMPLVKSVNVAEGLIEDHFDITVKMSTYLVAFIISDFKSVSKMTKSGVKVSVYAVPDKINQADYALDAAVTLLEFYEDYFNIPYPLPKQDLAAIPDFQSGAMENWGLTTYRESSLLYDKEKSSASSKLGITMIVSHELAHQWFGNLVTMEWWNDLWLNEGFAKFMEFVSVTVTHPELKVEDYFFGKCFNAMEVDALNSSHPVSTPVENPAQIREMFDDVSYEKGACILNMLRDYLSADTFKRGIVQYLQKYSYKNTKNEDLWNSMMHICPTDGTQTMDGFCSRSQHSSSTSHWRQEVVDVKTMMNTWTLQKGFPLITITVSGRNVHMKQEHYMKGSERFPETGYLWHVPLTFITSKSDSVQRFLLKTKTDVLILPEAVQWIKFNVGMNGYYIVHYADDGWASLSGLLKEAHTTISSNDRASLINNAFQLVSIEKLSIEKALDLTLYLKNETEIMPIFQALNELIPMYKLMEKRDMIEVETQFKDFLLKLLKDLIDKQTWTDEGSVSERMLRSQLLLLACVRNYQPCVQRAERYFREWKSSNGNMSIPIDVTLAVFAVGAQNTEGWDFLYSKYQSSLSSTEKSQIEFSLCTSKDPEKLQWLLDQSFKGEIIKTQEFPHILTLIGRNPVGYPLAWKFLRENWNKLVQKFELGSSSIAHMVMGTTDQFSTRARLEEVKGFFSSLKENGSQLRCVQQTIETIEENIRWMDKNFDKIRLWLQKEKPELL
Test: fluorogenic Ep peptide cleavage assay, dose-response
Type: biochemical

C#CC(=O)c1ccc(Br)cc1F [A, 1-(4-bromo-2-fluorophenyl)prop-2-yn-1-one]
IC50: 23 µM
